The target in assay [1] is Recombinant human FGFR1 (Homo sapiens, UniProt P11362). Kind of assay: Transcreener Kinase Assay of FGFR1. Type of assay: biochemical. As to conditions: read-out: FGFR1 (FP) IC50. On the procedure:
Transcreener Kinase Assay of FGFR1
(§1) Prepare Solution • Compounds were solved in DMSO and were diluted with assay buffer to 5 folds of final concentration keeping the DMSO concentration at 5%. Further dilution are needed to make final concentrations are at 1, 0.33, 0.11, 0.037, 0.012, 0.004, 0.0014, 0.0005 μM; (the final concentration of DMSO is 1%). • Enzyme/Substrate stock Preparation: Recombinant human FGFR1 and Poly E4Y are both diluted in assay buffer.
Enzymatic Reaction • In a 96-well plate, Add 5 μL of compound or control. (positive control: 5 μL of 5% DMSO; negative control: 5 μL of 500 mM EDTA) into desired wells; • Add 10 μL of Enzyme/Substrate stock into each well; • Add 10 μL of ATP Diluents to initiate the enzyme reaction and votex the plate immediately on a plate shaker; • For the wells to make standard curve, add 5 μL of 5% DMSO, 10 μL of assay buffer and 10 μL of ATP standard curve stock. • Incubate the plate for 45 min at 28[…] on a plate shaker in a low speed.
Excitation wavelength: 610 nm, Emission wavelength: 670 nm.
(§2) • [ADP] in Compound well represents the ADP concentration in compound well. • [ADP] in Positive control well represents the ADP concentration in 5% DMSO well • Conversion of mP value to ADP concentration is calculated based on the formula which determined by standard curve. And mP value is measured by following the instruction provided by BellBrook Labs. (www.bellbrooklabs.com). 6. IC50: calculated using XL-Fit 2.0 software.

In assay [2] the target is Recombinant human FGFR2 (Homo sapiens, UniProt P21802). Kind of assay: Transcreener Kinase Assay of FGFR2. Type of assay: biochemical. As to conditions: read-out: FGFR2 (FP) IC50. On the procedure:
Transcreener Kinase Assay of FGFR2
as §1, with “•” for “Prepare Solution •”, “FGFR2” for “FGFR1”, “buffer. The final concentration is 0.3 ng/μL for FGFR2 and 62.5 ng/μL for Poly E4Y. The mixture is being kept in ice before use; • Prepare ATP Diluents, 10 mM ATP is diluted in assay buffer, the final concentration is 25 μM; • Prepare ADP Diluents: diluted ADP (500 μM) in assay buffer, the final concentration is 25 μM; • Prepare ATP standard curve stock as following:” for “buffer.”
• In a 96-well plate, Add 5 μL of compound or control. (positive control: 5 μL of 5% DMSO; negative control: 5 μL of 500 mM EDTA) into desired wells; • Add 10 μL of Enzyme/Substrate stock into each well; • Add 10 μL of ATP Diluents to initiate the enzyme reaction and votex the plate immediately on a plate shaker; • For the wells to make standard curve, add 5 μL of 5% DMSO, 10 μL of assay buffer and 10 μL of ATP standard curve stock. • Incubate the plate for 45 min at 28[…] on a plate shaker in a low speed.
• Detection Mix Preparation: The mixture is made by dilution with MilliQ water; as following: ADP Alexa633 tracer (1:100), ADP antibody (1:158), and stop & detect buffer (1:10); • Tracer Only control Preparation: The mixture is made by dilution with MilliQ water; as following: ADP Alexa633 tracer (1:100), and stop & detect buffer (1:10) • No Tracer control Preparation: stop & detect buffer is diluted with MilliQ water; by 10 fold. • Add 25 μL of detection mix, Tracer Only control and No Tracer control into corresponding wells, respectively; • Incubate at 28 °C for 1 h, on a plate shaker in a low speed; • Measure florescence polarization (FP) on TECAN F500. Excitation wavelength: 610 nm, Emission wavelength: 670 nm.
as §2

Assay [3] deals with FGFR3 kinase (Homo sapiens, UniProt P22607). Kind of assay: Z-Lyte Kinase Assay of FGFR3. Type of assay: biochemical. On the procedure:
Z-Lyte Kinase Assay of FGFR3
The final concentrations are 1, 0.33, 0.11, 0.037, 0.012, 0.004, 0.0014, 0.00046 μM, and the final concentration of DMSO is 2%. • 3) Kinase/Peptide Mixture (P/K solution): Prepare Kinase/Peptide Mixture by diluting the kinase to 0.7 μg/ml and the Z-LYTE™ Tyr 4 peptide to 4 μM in 1.33× Kinase Buffer. Mix gently by pipetting. • 4) Phospho-peptide Solution (PP solution): Add 0.4 μl of Z-LYTE™ Tyr 4 Phospho-peptide to 99.6 μl of 1.33× Kinase Buffer. • 5) ATP Solution: Prepare ATP Solution by diluting the 10 mM of ATP in 1.33× Kinase Buffer to 300 uM. • 6) Development Solution: Dilute Development Reagent B with Development Buffer as 1:128.
Shake the plate for 30 Sec and centrifuge (1500 rpm, 1 min) • Seal the plate to protect from the light and incubate the plate for 1 hour at RT (25-30[…]) • 2) Development reaction • Add 5 μl of the Development solution to all wells • Shake the plate for 30 Sec and centrifuge (1500 rpm, 1 min) • Seal the plate to protect from the light and incubate the plate for 1 hour at RT (25-30[…]) • 3) Stop and read • Add 5 μl of the Stop reagent to all wells • Shake the plate for 30 Sec and centrifuge (1500 rpm, 1 min) • Measure the value of Coumarin (Ex400 nm, Em445 nm) and fluorescein (Ex400 nm, Em520 nm), respectively.
Inhibition rate(IR)=1−%Photest Cpd/%PhoC2
• determined with add-in software for Microsoft Excel, XLfit™ (version 2.0) from ID Business Solutions (Guildford, UK)

The subject of assay [4] is KG-1. Put plainly: Cellular Proliferation Assay (Cell Counting Kit-8), KG-1. The class given is cell-based. As to conditions: Homo sapiens, KG1 cells, 72 hours. On the procedure:
(§3) Cellular Proliferation Assay
(§4) • KG-1 (ATCC Accession No. CCL-246), • SNU-16 (ATCC Accession No. CRL-5974), • RT-112 (ECACC Accession No. 85061106)
(§5) • FGFR related cancer cell proliferation is measured in 96-well plates using Cell Counting Kit-8 (Dojindo CK04-13). • Seed 30000 cells/well of KG1, 5000 cells/well of SNU16, and 1000 cells/well of RT112 in a volume of 100 μL/well in growth media. • After 24 hours, dilute the compound to 10, 3.3, 1.1, 0.37, 0.12, 0.04, 0.013, 0.004 μM, keeping the DMSO concentration at 5%. • Add 10 μL of 8-point compound series to the wells of culturing cells. • Incubate at 37° C. and 5% CO2 for 72 hours • Add 10 μL/well of CCkit8 and incubate at 37° C. and 5% CO2 for an hour • Detect the optical density of each well at 450 nm on Labsystems Multiskan K3.
(§6) • ODcompound well represents the optical density of cells treated with compound. • ODcell well represents the optical density of cells without compounds treatment. (only 0.5% DMSO) • ODcontrol well represents the optical density of culture media background
(§7) The concentration of compound providing 50% of proliferation inhibition was calculated using Excel Fit.
A general note: Formazan colour is commonly taken as a measure of viable cells.

Assay [5] deals with SNU-16. Put plainly: Cellular Proliferation Assay (Cell Counting Kit-8), SNU-16. Particulars: Homo sapiens, SNU-16 cells, 72 hours. The class given is cell-based. On the procedure:
as §3, §4, §5, §6, §7

Our source for the IC50 values is patent publication US20160052926A1, “NOVEL PYRIMIDINE AND PYRIDINE COMPOUNDS AND USAGE THEREOF” (HUTCHISON MEDIPHARMA LIMITED, priority 2013, published 2016).

Molecules are shown by their SMILES.

Recombinant human FGFR1, sequence (P11362 22-822): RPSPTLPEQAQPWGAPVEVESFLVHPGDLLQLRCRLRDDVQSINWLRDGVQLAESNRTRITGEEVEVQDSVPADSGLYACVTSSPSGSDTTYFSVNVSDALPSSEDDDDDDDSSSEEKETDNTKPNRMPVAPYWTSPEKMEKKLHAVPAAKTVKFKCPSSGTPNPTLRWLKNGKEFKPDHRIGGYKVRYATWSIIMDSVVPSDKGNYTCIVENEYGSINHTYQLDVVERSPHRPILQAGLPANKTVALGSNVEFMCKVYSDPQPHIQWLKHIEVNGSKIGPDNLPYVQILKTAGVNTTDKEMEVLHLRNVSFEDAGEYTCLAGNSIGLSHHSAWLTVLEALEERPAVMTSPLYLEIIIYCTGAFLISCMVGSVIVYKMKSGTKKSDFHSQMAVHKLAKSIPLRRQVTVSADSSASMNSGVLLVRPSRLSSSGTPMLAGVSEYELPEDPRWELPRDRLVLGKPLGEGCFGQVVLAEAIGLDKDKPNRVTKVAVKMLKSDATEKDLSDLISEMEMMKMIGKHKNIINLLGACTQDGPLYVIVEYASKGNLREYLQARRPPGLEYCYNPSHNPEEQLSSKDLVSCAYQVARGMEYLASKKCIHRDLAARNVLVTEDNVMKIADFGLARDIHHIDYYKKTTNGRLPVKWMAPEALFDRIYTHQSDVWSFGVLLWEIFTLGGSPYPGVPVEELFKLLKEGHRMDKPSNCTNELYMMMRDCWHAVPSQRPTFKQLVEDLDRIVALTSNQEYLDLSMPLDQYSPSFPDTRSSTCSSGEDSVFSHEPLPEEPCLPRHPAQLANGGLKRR
Recombinant human FGFR2, sequence (P21802 22-821): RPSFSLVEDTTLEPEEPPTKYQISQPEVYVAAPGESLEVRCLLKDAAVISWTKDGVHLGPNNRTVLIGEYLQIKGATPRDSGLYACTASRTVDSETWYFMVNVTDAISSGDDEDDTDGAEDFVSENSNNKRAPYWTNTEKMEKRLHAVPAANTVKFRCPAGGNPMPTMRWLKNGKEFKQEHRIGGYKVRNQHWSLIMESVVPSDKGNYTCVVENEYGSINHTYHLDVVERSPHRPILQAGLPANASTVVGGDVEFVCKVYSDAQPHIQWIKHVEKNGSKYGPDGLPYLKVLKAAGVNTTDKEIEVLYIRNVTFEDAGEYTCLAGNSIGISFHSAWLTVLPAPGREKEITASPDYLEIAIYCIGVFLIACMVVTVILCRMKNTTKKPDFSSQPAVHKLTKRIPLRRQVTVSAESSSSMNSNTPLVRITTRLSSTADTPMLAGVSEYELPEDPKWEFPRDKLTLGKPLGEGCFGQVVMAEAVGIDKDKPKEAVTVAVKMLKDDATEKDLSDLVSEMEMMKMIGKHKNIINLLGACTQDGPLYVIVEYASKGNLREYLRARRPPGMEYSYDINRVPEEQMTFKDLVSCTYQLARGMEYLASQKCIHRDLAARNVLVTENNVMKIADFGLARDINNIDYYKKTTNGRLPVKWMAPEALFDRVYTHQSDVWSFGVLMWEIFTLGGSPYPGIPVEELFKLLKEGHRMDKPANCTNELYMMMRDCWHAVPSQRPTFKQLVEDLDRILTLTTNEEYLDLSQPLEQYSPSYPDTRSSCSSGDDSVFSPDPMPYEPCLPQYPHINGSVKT
FGFR3 kinase, sequence (P22607 23-806): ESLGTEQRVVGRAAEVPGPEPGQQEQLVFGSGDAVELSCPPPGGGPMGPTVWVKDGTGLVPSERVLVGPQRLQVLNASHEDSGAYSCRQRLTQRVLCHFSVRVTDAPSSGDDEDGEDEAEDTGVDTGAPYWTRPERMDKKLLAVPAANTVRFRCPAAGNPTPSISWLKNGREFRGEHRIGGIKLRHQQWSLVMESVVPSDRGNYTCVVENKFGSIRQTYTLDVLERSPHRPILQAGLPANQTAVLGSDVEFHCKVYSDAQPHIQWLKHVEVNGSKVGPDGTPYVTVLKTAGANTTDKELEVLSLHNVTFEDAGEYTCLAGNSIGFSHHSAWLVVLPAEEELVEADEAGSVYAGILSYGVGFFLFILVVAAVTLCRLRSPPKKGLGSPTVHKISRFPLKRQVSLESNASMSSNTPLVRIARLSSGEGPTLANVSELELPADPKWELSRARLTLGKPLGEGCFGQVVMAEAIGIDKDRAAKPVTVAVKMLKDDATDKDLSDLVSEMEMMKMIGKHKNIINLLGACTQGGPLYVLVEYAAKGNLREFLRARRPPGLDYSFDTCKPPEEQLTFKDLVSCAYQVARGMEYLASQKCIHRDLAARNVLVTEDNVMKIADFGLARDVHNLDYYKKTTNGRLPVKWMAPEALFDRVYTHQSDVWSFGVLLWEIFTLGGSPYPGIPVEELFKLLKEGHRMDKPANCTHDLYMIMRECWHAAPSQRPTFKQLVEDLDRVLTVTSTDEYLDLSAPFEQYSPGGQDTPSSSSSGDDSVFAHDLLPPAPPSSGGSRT

One may read the IC50 as the concentration needed to halve the response being measured. For the compound `CCN1CCN(c2ccc(Nc3ccc(CCc4cc(OC)cc(C(=O)NOC)c4)cn3)cn2)CC1` [Compound 75], the IC50 in assay [1] turned out to be 41 nM; in assay [2] it was 33 nM; in assay [3] it was 61 nM; in assay [4], 123 nM; in assay [5], 94 nM.
Consider `CNC(=O)c1cc(CCc2cnc(Nc3ccc4nnnn4c3)nc2)c(F)c(OC)c1` [Compound 96], for which the IC50 in assay [1] was 63 nM; in assay [2], 44 nM; in assay [3], 119 nM; in assay [4], 161 nM; in assay [5], 150 nM.
In the same order, the values of `CONC(=O)c1cc(CCc2cnc(Nc3ccc(N4CCN(C)[C@H](C)C4)cc3)nc2)cc(OC)c1` [Compound 40] are 12 nM, 10 nM, 39 nM, 31 nM and 48 nM.
`CONC(=O)c1cc(CCc2cnc(Nc3ccc(N4C[C@@H](C)N[C@@H](C)C4)cc3)nc2)cc(OC)c1` [Compound 41]: the IC50 worked out at 4 nM in assay [1]; 6 nM in assay [2]; 9 nM in assay [3]; 38 nM in assay [4]; 24 nM in assay [5].
As for `CCN1CCN(c2cc(F)cc(Nc3ncc(CCc4cc(OC)cc(C(=O)NOC)c4)cn3)c2)CC1` [Compound 77], the half-inhibitory concentration (IC50) in assay [1] stood at 5 nM; in assay [2], 3 nM; in assay [3], 4 nM; in assay [4] it was 11 nM; in assay [5] it was 12 nM.
Take `CONC(=O)c1cc(CCc2cnc(Nc3cnn(C)c3)nc2)cc(OC)c1` [Compound 23]: the IC50 in assay [1] amounted to 9 nM; in assay [2] it was 6 nM; in assay [3] it was 13 nM; in assay [4] it was 29 nM; in assay [5] it was 18 nM.
In the same order, the values of `CCN1CCN(c2ccc(Nc3ncc(CCc4cc(C(=O)NOC)cc5occc45)cn3)cc2)CC1` [Compound 5] are 13 nM, 12 nM, 47 nM, 24 nM and 56 nM.
Consider `CCN1CCN(c2cccc(Nc3ncc(CCc4cc(OC)cc(C(=O)NOC)c4)cn3)c2)CC1` [Compound 14, 3-(2-(2-((3-(4-ethylpiperazin-1-yl)phenyl)amino)pyrimidin-5-yl)ethyl)-N,5-dimethoxybenzamide], for which the IC50 in assay [1] was determined as 3 nM; in assay [2], 4 nM; in assay [3], 4 nM; in assay [4] it was 9 nM; in assay [5], 7 nM.
Consider `CONC(=O)c1cc(CCc2cnc(Nc3ccc(N4CCOCC4)cc3)nc2)cc(OC)c1` [Compound 37], for which the IC50 in assay [1] is 10 nM; in assay [2], 7 nM; in assay [3], 16 nM; in assay [4] it was 46 nM; in assay [5], 44 nM.
For `CONC(=O)c1cc(CCc2cnc(Nc3ccc(Cl)cc3)nc2)cc(OC)c1` [Compound 113], in that order: 48 nM, 18 nM, 146 nM, 148 nM and 89 nM.
Take `CONC(=O)c1cc(CCc2cnc(Nc3cnn(C)c3)nc2)c(F)c(OC)c1` [Compound 29]: the IC50 in assay [1] came out at 3 nM; in assay [2], 2 nM; in assay [3] it was 7 nM; in assay [4] it was 5 nM; in assay [5] it was 5 nM.
Consider `CCN1CCN(c2ccc(Nc3ncc(CCc4cc(OC)cc(C(=O)NOCCO)c4)cn3)cc2)CC1` [Compound 20, 3-(2-(2-((4-(4-ethylpiperazin-1-yl)phenyl)amino)pyrimidin-5-yl)ethyl)-N-(2-hydroxyethoxy)-5-methoxybenzamide], for which the IC50 was determined as 43 nM in assay [1]; 34 nM in assay [2]; 128 nM in assay [3]; 589 nM in assay [4]; 340 nM in assay [5].
In the same order, the values of `CONC(=O)c1cc(CCc2cnc(Nc3ccn(C)n3)nc2)cc(OC)c1` [Compound 24] are 47 nM, 27 nM, 94 nM, 122 nM and 151 nM.
For `CONC(=O)c1cc(CCc2cnc(Nc3cccc(N4C[C@@H](C)N[C@@H](C)C4)c3)nc2)cc(OC)c1` [Compound 18], in that order: 12 nM, 6 nM, 8 nM, 77 nM and 3 nM.
Consider `CNC(=O)c1cc(CCc2cnc(Nc3ccc(CC(=O)O)cc3)nc2)c(F)c(OC)c1` [Compound 206], for which the IC50 in assay [1] was 38 nM; in assay [2] it was 13 nM; in assay [3], 21 nM.
In the same order, the values of `CNC(=O)c1cc(CCc2cnc(Nc3c(C)nn(C)c3C)nc2)c(F)c(OC)c1` [Compound 109] are 379 nM, 275 nM and 311 nM.
